# Measurements: PubChem BioAssay (NCI)
#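 Interpolation was linear, between the two tested concentrations surrounding the appropriate level; five concentrations were tested over 48 hours in 96-well plates. GI50 = concentration required for 50% inhibition of growth. TGI marks complete inhibition of growth.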
# Legend:
# Experiment in all cases: NCI anticancer screen, dose series, 48 h
# UACC-257 melanoma = test system: UACC-257 melanoma
# COLO 205 colon = test system: COLO 205 colon
# IGROV1 ovarian = test system: IGROV1 ovarian
# HCT-15 colon = test system: HCT-15 colon
# SF-295 CNS = test system: SF-295 CNS
# PC-3 prostate = test system: PC-3 prostate
# SF-268 CNS = test system: SF-268 CNS
# SK-MEL-28 melanoma = test system: SK-MEL-28 melanoma
# NCI-H226 lung = test system: NCI-H226 lung
# SNB-75 CNS = test system: SNB-75 CNS
# SK-MEL-2 melanoma = test system: SK-MEL-2 melanoma
# A498 renal = test system: A498 renal
# HT29 colon = test system: HT29 colon
# M14 melanoma = test system: M14 melanoma
# U251 CNS = test system: U251 CNS
# CAKI-1 renal = test system: CAKI-1 renal
# UO-31 renal = test system: UO-31 renal
# OVCAR-5 ovarian = test system: OVCAR-5 ovarian
# MDA-MB-435 = test system: MDA-MB-435
# HOP-92 NSCLC = test system: HOP-92 NSCLC
# HL-60(TB) leukemia = test system: HL-60(TB) leukemia
# MDA-MB-231 breast = test system: MDA-MB-231 breast
# 786-0 renal = test system: 786-0 renal
# NCI-H460 lung = test system: NCI-H460 lung
# MCF7 breast = test system: MCF7 breast
# HCT-116 colon = test system: HCT-116 colon
# OVCAR-8 ovarian = test system: OVCAR-8 ovarian
# K-562 leukemia = test system: K-562 leukemia
# OVCAR-4 ovarian = test system: OVCAR-4 ovarian
# SN12C renal = test system: SN12C renal
# KM12 colon = test system: KM12 colon
# SW-620 colon = test system: SW-620 colon
# MALME-3M melanoma = test system: MALME-3M melanoma
# HCC-2998 colon = test system: HCC-2998 colon
# LOX IMVI melanoma = test system: LOX IMVI melanoma
# SNB-19 CNS = test system: SNB-19 CNS
# RPMI-8226 leukemia = test system: RPMI-8226 leukemia
# SF-539 CNS = test system: SF-539 CNS
# TK-10 renal = test system: TK-10 renal
# CCRF-CEM leukemia = test system: CCRF-CEM leukemia
# UACC-62 melanoma = test system: UACC-62 melanoma
# T-47D breast = test system: T-47D breast
# ACHN renal = test system: ACHN renal
# EKVX NSCLC = test system: EKVX NSCLC
# BT-549 breast = test system: BT-549 breast
# NCI-H522 lung = test system: NCI-H522 lung
# NCI/ADR-RES ovarian = test system: NCI/ADR-RES ovarian
# SK-OV-3 ovarian = test system: SK-OV-3 ovarian
# DU-145 prostate = test system: DU-145 prostate
# OVCAR-3 ovarian = test system: OVCAR-3 ovarian
# HOP-62 NSCLC = test system: HOP-62 NSCLC
# A549 NSCLC = test system: A549 NSCLC
# NCI-H23 lung = test system: NCI-H23 lung
# RXF 393 renal = test system: RXF 393 renal
# HS 578T breast = test system: HS 578T breast
# SK-MEL-5 melanoma = test system: SK-MEL-5 melanoma
# MOLT-4 leukemia = test system: MOLT-4 leukemia
smiles,measurement,setting,value
COc1cccc2c1C(=O)c1c(O)c3c(c(O)c1C2=O)C[C@@](O)(C(=O)CO)C[C@@H]3OC1CC(OC(C)=O)C(OC(C)=O)C(C)O1 (some centres not stated),GI50,UACC-257 melanoma,1.37 µM
same,TGI,UACC-257 melanoma,4.25 µM
same,GI50,COLO 205 colon,0.801 µM
same,TGI,COLO 205 colon,4.45 µM
same,TGI,IGROV1 ovarian,3.91 µM
same,GI50,HCT-15 colon,0.491 µM
same,TGI,HCT-15 colon,6.75 µM
same,GI50,SF-295 CNS,0.234 µM
same,TGI,SF-295 CNS,1.25 µM
same,GI50,PC-3 prostate,1.48 µM
same,TGI,PC-3 prostate,> 23.3 µM
same,GI50,SF-268 CNS,0.287 µM
same,TGI,SF-268 CNS,4.46 µM
same,GI50,SK-MEL-28 melanoma,1.39 µM
same,TGI,SK-MEL-28 melanoma,3.2 µM
same,GI50,NCI-H226 lung,0.193 µM
same,TGI,NCI-H226 lung,1.16 µM
same,GI50,SNB-75 CNS,0.687 µM
same,TGI,SNB-75 CNS,8.53 µM
same,GI50,SK-MEL-2 melanoma,1.87 µM
same,TGI,SK-MEL-2 melanoma,4.95 µM
same,GI50,A498 renal,0.127 µM
same,TGI,A498 renal,1.62 µM
same,GI50,HT29 colon,1.02 µM
same,TGI,HT29 colon,> 32.1 µM
same,GI50,M14 melanoma,0.529 µM
same,TGI,M14 melanoma,2.26 µM
same,GI50,U251 CNS,0.275 µM
same,TGI,U251 CNS,7.93 µM
same,GI50,CAKI-1 renal,0.18 µM
same,TGI,CAKI-1 renal,1.44 µM
same,GI50,UO-31 renal,0.258 µM
same,TGI,UO-31 renal,1.99 µM
same,GI50,OVCAR-5 ovarian,1.16 µM
same,TGI,OVCAR-5 ovarian,5 µM
same,GI50,MDA-MB-435,1.27 µM
same,TGI,MDA-MB-435,4.63 µM
same,GI50,HOP-92 NSCLC,0.239 µM
same,GI50,HL-60(TB) leukemia,0.235 µM
same,GI50,MDA-MB-231 breast,2.89 µM
same,TGI,MDA-MB-231 breast,15.6 µM
same,GI50,786-0 renal,0.272 µM
same,TGI,786-0 renal,1.41 µM
same,GI50,NCI-H460 lung,< 0.0239 µM
same,TGI,NCI-H460 lung,1.57 µM
same,GI50,MCF7 breast,< 0.0284 µM
same,TGI,MCF7 breast,7.64 µM
same,GI50,HCT-116 colon,0.279 µM
same,TGI,HCT-116 colon,1.89 µM
same,GI50,OVCAR-8 ovarian,0.479 µM
same,TGI,OVCAR-8 ovarian,> 58.1 µM
same,GI50,K-562 leukemia,0.868 µM
same,GI50,OVCAR-4 ovarian,2.24 µM
same,TGI,OVCAR-4 ovarian,> 39.6 µM
same,GI50,SN12C renal,0.255 µM
same,TGI,SN12C renal,5.87 µM
same,GI50,KM12 colon,0.549 µM
same,TGI,KM12 colon,3.74 µM
same,GI50,SW-620 colon,0.277 µM
same,TGI,SW-620 colon,3.45 µM
same,GI50,MALME-3M melanoma,0.502 µM
same,TGI,MALME-3M melanoma,2.19 µM
same,GI50,HCC-2998 colon,1.28 µM
same,TGI,HCC-2998 colon,3.19 µM
same,GI50,LOX IMVI melanoma,0.284 µM
same,TGI,LOX IMVI melanoma,> 20 µM
same,GI50,SNB-19 CNS,0.496 µM
same,TGI,SNB-19 CNS,> 100 µM
same,GI50,RPMI-8226 leukemia,0.226 µM
same,TGI,RPMI-8226 leukemia,2.11 µM
same,GI50,SF-539 CNS,0.267 µM
same,TGI,SF-539 CNS,1.9 µM
same,GI50,TK-10 renal,0.985 µM
same,TGI,TK-10 renal,6.43 µM
same,GI50,CCRF-CEM leukemia,0.0435 µM
same,TGI,CCRF-CEM leukemia,0.764 µM
same,GI50,UACC-62 melanoma,0.23 µM
same,TGI,UACC-62 melanoma,1.89 µM
same,GI50,T-47D breast,0.237 µM
same,TGI,T-47D breast,1.99 µM
same,GI50,ACHN renal,0.152 µM
same,TGI,ACHN renal,1.44 µM
same,GI50,EKVX NSCLC,1.92 µM
same,TGI,EKVX NSCLC,9.5 µM
same,GI50,BT-549 breast,0.386 µM
same,TGI,BT-549 breast,4.29 µM
same,GI50,NCI-H522 lung,0.578 µM
same,TGI,NCI-H522 lung,3.36 µM
same,GI50,NCI/ADR-RES ovarian,0.552 µM
same,GI50,SK-OV-3 ovarian,0.83 µM
same,TGI,SK-OV-3 ovarian,6.5 µM
same,GI50,DU-145 prostate,0.12 µM
same,TGI,DU-145 prostate,0.719 µM
same,GI50,OVCAR-3 ovarian,0.965 µM
same,TGI,OVCAR-3 ovarian,4.57 µM
same,GI50,HOP-62 NSCLC,0.314 µM
same,TGI,HOP-62 NSCLC,2.27 µM
same,GI50,A549 NSCLC,0.41 µM
same,TGI,A549 NSCLC,2.77 µM
same,GI50,NCI-H23 lung,0.227 µM
same,TGI,NCI-H23 lung,1.5 µM
same,GI50,RXF 393 renal,1.41 µM
same,TGI,RXF 393 renal,3.72 µM
same,TGI,HS 578T breast,4.14 µM
same,GI50,SK-MEL-5 melanoma,0.249 µM
same,TGI,SK-MEL-5 melanoma,1.67 µM
same,GI50,MOLT-4 leukemia,< 0.0282 µM
